Measurements published in patent US11000033B2, “Ketone or oxime compound, and herbicide” (NISSAN CHEMICAL CORPORATION, priority 2014, dated 2021).

Legend:
Format in all cases: in vivo
Amaranthus retroflexus = assay: Test Example 5: herbicidal effect by foliage application, plastic box (symbol N); settings: 320 g/ha, 3 weeks after application
Outline: (§1)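 Seeds were sown in sterilized diluvial soil, covered with about 1.5 cm of soil and grown 14 days in a greenhouse at 25° C. to 30° C. An emulsifiable formulation diluted in water to a set rate was sprayed over foliage, and injury was scored 3 weeks later.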

Apera spica-venti = assay: Test Example 5: herbicidal effect by foliage application, plastic box (symbol L); settings: 320 g/ha, 3 weeks after application
Outline: as §1

Chenopodium album [1] = assay: Test Example 4: herbicidal effect by soil treatment (symbol O)
Outline: (§2)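 Seeds were sown in sterilized diluvial soil, covered with about 1.5 cm of soil, and the soil surface was sprayed with a water-diluted emulsion of the compound at a predetermined rate. Plants grew in a greenhouse at 25° C. to 30° C.; effects were scored visually 3 weeks after application.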

Chenopodium album [2] = assay: Test Example 5: herbicidal effect by foliage application, plastic box (symbol O); settings: 320 g/ha, 3 weeks after application
Outline: as §1

rapeseed = assay: Test Example 5: effect on crop by foliage application, plastic box (symbol g); settings: 320 g/ha, 3 weeks after application
Outline: (§3)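 A greenhouse held between 25° C. and 30° C. was used to grow plants sown spot-wise, beneath ~1.5 cm of soil, in boxes of sterilized diluvial soil.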

Monochoria vaginalis = assay: Test Example 1: herbicidal activity, application before weed generation in submerged conditions (symbol C); settings: application herbicide amount 320 g/ha
Outline: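 Paddy pre-emergence test. Formulated emulsion, water-diluted to a predetermined rate, is applied to floodwater on sowing day; rice transplanted at 2.5 leaves. Effect read at 3 weeks on a 0–5 herbicidal-ratio scale.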

beet = assay: Test Example 5: effect on crop by foliage application, plastic box (symbol f); settings: 320 g/ha, 3 weeks after application
Outline: as §3

corn = assay: Test Example 5: effect on crop by foliage application, plastic box (symbol c); settings: 320 g/ha, 3 weeks after application
Outline: as §3

[3] = test system: Echinochloa oryzacola Vasing.; assay: Test Example 2: herbicidal activity, application during weed generation in submerged conditions (symbol A); settings: Table 23; application herbicide amount 320 g/ha; grade 0-5 by criteria of Test Example 1
Outline: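 Each pot contained alluvial soil under 4 cm of water with seeds of all three weeds sown together. Following growth at 25° C. to 30° C. to the one- to two-leaf stage, the floodwater received diluted emulsion at a predetermined amount; visual assessment followed at 3 weeks.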

Leptochloa chinensis = assay: Test Example 3: herbicidal effect by foliage application, Wagner pot (symbol D); settings: application herbicide amount 320 g/ha
Outline: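 Seeds sown in alluvial soil kept under 0.1–0.5 cm water, greenhouse 25–30 °C; 14 d growth. Leaves treated by small sprayer with water-diluted emulsion at a predetermined rate. Effect graded by set scale, 3 weeks.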

Galium spurium = assay: Test Example 5: herbicidal effect by foliage application, plastic box (symbol Q); settings: 320 g/ha, 3 weeks after application
Outline: as §1

Abutilon theophrasti = assay: Test Example 5: herbicidal effect by foliage application, plastic box (symbol M); settings: 320 g/ha, 3 weeks after application
Outline: as §1

Setaria viridis = assay: Test Example 4: herbicidal effect by soil treatment (symbol G)
Outline: as §2

soybean = assay: Test Example 5: effect on crop by foliage application, plastic box (symbol d); settings: 320 g/ha, 3 weeks after application
Outline: as §3

Digitaria ciliaris = assay: Test Example 4: herbicidal effect by soil treatment (symbol F)
Outline: as §2

[4] = application herbicide amount 320 g/ha

CON=C(C)CC1CC(OS(=O)(=O)c2ccc(C)cc2)=C(c2c(C)cc(C)cc2C)C1=O (stereo not drawn) [1-161]
N: Amaranthus retroflexus, herbicidal effect grade (Amaranthus retroflexus): 0 (Herbicidal ratio of 5% or lower (almost no effect))
L: Apera spica-venti, herbicidal effect grade (Apera spica-venti): 5 (Herbicidal ratio of 90% or more (almost completely withered))
O: Chenopodium album, herbicidal effect grade (Chenopodium album [1]; 320 g/ha): 0 (Herbicidal ratio of 5% or lower (almost no effect))
O: Chenopodium album, herbicidal effect grade (Chenopodium album [2]): 0 (Herbicidal ratio of 5% or lower (almost no effect))
g: rapeseed, effect on crop grade (rapeseed): 3 (Herbicidal ratio of 40% or higher and lower than 70%)
Herbicidal effect grade, C: Monochoria vaginalis (Monochoria vaginalis): 1 (Herbicidal ratio of 5% or higher and lower than 20%)
f: beet, effect on crop grade (beet): 0 (Herbicidal ratio of 5% or lower (almost no effect))
c: corn, effect on crop grade (corn): 1 (Herbicidal ratio of 5% or higher and lower than 20%)
Herbicidal effect grade, A: Echinochloa oryzacola Vasing. [3]: 5 (Herbicidal ratio of 90% or more (almost completely withered))
herbicidal effect on D (Leptochloa chinensis), grade 0-5 (Leptochloa chinensis): 5 (Herbicidal ratio of 90% or more (almost completely withered))
Q: Galium spurium, herbicidal effect grade (Galium spurium): 0 (Herbicidal ratio of 5% or lower (almost no effect))
M: Abutilon theophrasti, herbicidal effect grade (Abutilon theophrasti): 0 (Herbicidal ratio of 5% or lower (almost no effect))
G: Setaria viridis, herbicidal effect grade (Setaria viridis; 320 g/ha): 0 (Herbicidal ratio of 5% or lower (almost no effect))
d: soybean, effect on crop grade (soybean): 0 (Herbicidal ratio of 5% or lower (almost no effect))
F: Digitaria ciliaris, herbicidal effect grade (Digitaria ciliaris; 320 g/ha): 5 (Herbicidal ratio of 90% or more (almost completely withered))

CON=C(C)CC1CC(OC(=O)c2ccccc2OC(F)(F)F)=C(c2c(C)cc(C)cc2C)C1=O (stereo not drawn) [1-155]
N: Amaranthus retroflexus, herbicidal effect (criteria 0-5) (Amaranthus retroflexus): 2 (Herbicidal ratio of 20% or higher and lower than 40%)
L: Apera spica-venti, herbicidal effect (criteria 0-5) (Apera spica-venti): 5 (Herbicidal ratio of 90% or more (almost completely withered))
O: Chenopodium album, herbicidal effect grade (Chenopodium album [1]; 320 g/ha): 0 (Herbicidal ratio of 5% or lower (almost no effect))
O: Chenopodium album, herbicidal effect (criteria 0-5) (Chenopodium album [2]): 0 (Herbicidal ratio of 5% or lower (almost no effect))
g: rapeseed, effect on crop (criteria 0-5) (rapeseed): 4 (Herbicidal ratio of 70% or higher and lower than 90%)
Herbicidal effect grade, C: Monochoria vaginalis (Monochoria vaginalis): 1 (Herbicidal ratio of 5% or higher and lower than 20%)
f: beet, effect on crop (criteria 0-5) (beet): 2 (Herbicidal ratio of 20% or higher and lower than 40%)
c: corn, effect on crop (criteria 0-5) (corn): 4 (Herbicidal ratio of 70% or higher and lower than 90%)
Herbicidal effect grade, A: Echinochloa oryzacola Vasing. [3]: 5 (Herbicidal ratio of 90% or more (almost completely withered))
herbicidal effect on D (Leptochloa chinensis), grade 0-5 (Leptochloa chinensis): 5 (Herbicidal ratio of 90% or more (almost completely withered))
Q: Galium spurium, herbicidal effect (criteria 0-5) (Galium spurium): 0 (Herbicidal ratio of 5% or lower (almost no effect))
M: Abutilon theophrasti, herbicidal effect (criteria 0-5) (Abutilon theophrasti): 4 (Herbicidal ratio of 70% or higher and lower than 90%)
G: Setaria viridis, herbicidal effect grade (Setaria viridis; 320 g/ha): 5 (Herbicidal ratio of 90% or more (almost completely withered))
d: soybean, effect on crop (criteria 0-5) (soybean): 3 (Herbicidal ratio of 40% or higher and lower than 70%)
F: Digitaria ciliaris, herbicidal effect grade (Digitaria ciliaris; 320 g/ha): 5 (Herbicidal ratio of 90% or more (almost completely withered))

C=CCN(CC=C)C(=O)OC1=C(c2c(C)cc(C)cc2C)C(=O)C(CC(C)=NOC)C1 (stereo not drawn) [1-153]
N: Amaranthus retroflexus, herbicidal effect (criteria 0-5) (Amaranthus retroflexus): 4 (Herbicidal ratio of 70% or higher and lower than 90%)
L: Apera spica-venti, herbicidal effect (criteria 0-5) (Apera spica-venti): 5 (Herbicidal ratio of 90% or more (almost completely withered))
O: Chenopodium album, herbicidal effect grade (Chenopodium album [1]; 320 g/ha): 0 (Herbicidal ratio of 5% or lower (almost no effect))
O: Chenopodium album, herbicidal effect (criteria 0-5) (Chenopodium album [2]): 0 (Herbicidal ratio of 5% or lower (almost no effect))
g: rapeseed, effect on crop (criteria 0-5) (rapeseed): 4 (Herbicidal ratio of 70% or higher and lower than 90%)
Herbicidal effect grade, C: Monochoria vaginalis (Monochoria vaginalis): 0 (Herbicidal ratio of 5% or lower (almost no effect))
f: beet, effect on crop (criteria 0-5) (beet): 0 (Herbicidal ratio of 5% or lower (almost no effect))
c: corn, effect on crop (criteria 0-5) (corn): 3 (Herbicidal ratio of 40% or higher and lower than 70%)
Herbicidal effect grade, A: Echinochloa oryzacola Vasing. [3]: 4 (Herbicidal ratio of 70% or higher and lower than 90%)
herbicidal effect on D (Leptochloa chinensis), grade 0-5 (Leptochloa chinensis): 5 (Herbicidal ratio of 90% or more (almost completely withered))
Q: Galium spurium, herbicidal effect (criteria 0-5) (Galium spurium): 3 (Herbicidal ratio of 40% or higher and lower than 70%)
M: Abutilon theophrasti, herbicidal effect (criteria 0-5) (Abutilon theophrasti): 4 (Herbicidal ratio of 70% or higher and lower than 90%)
G: Setaria viridis, herbicidal effect grade (Setaria viridis; 320 g/ha): 1 (Herbicidal ratio of 5% or higher and lower than 20%)
d: soybean, effect on crop (criteria 0-5) (soybean): 1 (Herbicidal ratio of 5% or higher and lower than 20%)
F: Digitaria ciliaris, herbicidal effect grade (Digitaria ciliaris; 320 g/ha): 5 (Herbicidal ratio of 90% or more (almost completely withered))

CON=C(C)CC1CC(O)=C(c2c(C)cc(Br)cc2C)C1=O (stereo not drawn) [6-003]
N: Amaranthus retroflexus, herbicidal effect grade (Amaranthus retroflexus): 0 (Herbicidal ratio of 5% or lower (almost no effect))
L: Apera spica-venti, herbicidal effect grade (Apera spica-venti): 5 (Herbicidal ratio of 90% or more (almost completely withered))
O: Chenopodium album, herbicidal effect grade (Chenopodium album [1]; [4]): 0 (Herbicidal ratio of 5% or lower (almost no effect))
O: Chenopodium album, herbicidal effect grade (Chenopodium album [2]): 1 (Herbicidal ratio of 5% or higher and lower than 20%)
g: rapeseed, effect on crop grade (rapeseed): 4 (Herbicidal ratio of 70% or higher and lower than 90%)
Herbicidal effect grade, C: Monochoria vaginalis (Monochoria vaginalis): 1 (Herbicidal ratio of 5% or higher and lower than 20%)
f: beet, effect on crop grade (beet): 0 (Herbicidal ratio of 5% or lower (almost no effect))
c: corn, effect on crop grade (corn): 5 (Herbicidal ratio of 90% or more (almost completely withered))
Herbicidal effect grade, A: Echinochloa oryzacola Vasing. [3]: 4 (Herbicidal ratio of 70% or higher and lower than 90%)
herbicidal effect on D (Leptochloa chinensis), grade 0-5 (Leptochloa chinensis): 5 (Herbicidal ratio of 90% or more (almost completely withered))
Q: Galium spurium, herbicidal effect grade (Galium spurium): 3 (Herbicidal ratio of 40% or higher and lower than 70%)
M: Abutilon theophrasti, herbicidal effect grade (Abutilon theophrasti): 3 (Herbicidal ratio of 40% or higher and lower than 70%)
G: Setaria viridis, herbicidal effect grade (Setaria viridis; [4]): 5 (Herbicidal ratio of 90% or more (almost completely withered))
d: soybean, effect on crop grade (soybean): 3 (Herbicidal ratio of 40% or higher and lower than 70%)
F: Digitaria ciliaris, herbicidal effect grade (Digitaria ciliaris; [4]): 5 (Herbicidal ratio of 90% or more (almost completely withered))

CON=C(C)CC1CC(OC(=O)c2ccc(S(C)(=O)=O)c(C(=O)OC)c2Cl)=C(c2c(C)cc(C)cc2C)C1=O (stereo not drawn) [1-162]
N: Amaranthus retroflexus, herbicidal effect grade (Amaranthus retroflexus): 1 (Herbicidal ratio of 5% or higher and lower than 20%)
L: Apera spica-venti, herbicidal effect grade (Apera spica-venti): 5 (Herbicidal ratio of 90% or more (almost completely withered))
O: Chenopodium album, herbicidal effect grade (Chenopodium album [1]; 320 g/ha): 0 (Herbicidal ratio of 5% or lower (almost no effect))
O: Chenopodium album, herbicidal effect grade (Chenopodium album [2]): 4 (Herbicidal ratio of 70% or higher and lower than 90%)
g: rapeseed, effect on crop grade (rapeseed): 4 (Herbicidal ratio of 70% or higher and lower than 90%)
Herbicidal effect grade, C: Monochoria vaginalis (Monochoria vaginalis): 3 (Herbicidal ratio of 40% or higher and lower than 70%)
f: beet, effect on crop grade (beet): 3 (Herbicidal ratio of 40% or higher and lower than 70%)
c: corn, effect on crop grade (corn): 4 (Herbicidal ratio of 70% or higher and lower than 90%)
Herbicidal effect grade, A: Echinochloa oryzacola Vasing. [3]: 5 (Herbicidal ratio of 90% or more (almost completely withered))
herbicidal effect on D (Leptochloa chinensis), grade 0-5 (Leptochloa chinensis): 5 (Herbicidal ratio of 90% or more (almost completely withered))
Q: Galium spurium, herbicidal effect grade (Galium spurium): 4 (Herbicidal ratio of 70% or higher and lower than 90%)
M: Abutilon theophrasti, herbicidal effect grade (Abutilon theophrasti): 4 (Herbicidal ratio of 70% or higher and lower than 90%)
G: Setaria viridis, herbicidal effect grade (Setaria viridis; 320 g/ha): 5 (Herbicidal ratio of 90% or more (almost completely withered))
d: soybean, effect on crop grade (soybean): 2 (Herbicidal ratio of 20% or higher and lower than 40%)
F: Digitaria ciliaris, herbicidal effect grade (Digitaria ciliaris; 320 g/ha): 5 (Herbicidal ratio of 90% or more (almost completely withered))
